Article PMC11858653, “Design, Synthesis and Bioactive Evaluation of Topo I/c-MYC Dual Inhibitors to Inhibit Oral Cancer via Regulating the PI3K/AKT/NF-κB Signaling Pathway” (Molecules, 2025)

Legend:
Cal27 cells [1] = assay: Wound healing assay; format: cell-based, human; conditions: 1-4 μM, 24 h
Protocol: Cal27 cells in the logarithmic growth phase were inoculated into 6-well plates and cultured until the cells fused into a monolayer. A linear wound was then formed by scratching vertically with a 200 μL sterilized gun tip. The cells were washed 3 times with PBS to remove scraped off cells, and each well was incubated by adding medium. The initial scratched area was recorded with a microscope. Then different concentrations of the compounds to be tested were added, and the area of the scratches was recorded by microscopy 24 h later.

A549 = assay: MTT antiproliferative assay, A549; format: cell-based, human; conditions: Homo sapiens, A549, 48 h, mean ± SD
PI3K/AKT/NF-κB pathway = assay: Western blot of PI3K/AKT/NF-κB signaling pathway in Cal27 cells; format: cell-based, human; conditions: Cal27, 24 h
Protocol: After Cal27 cells had been treated with the desired concentration of each drug for 24 h, the cells were collected and the total protein was extracted. The cells were then separated on a gel of appropriate concentration and transferred to a PVDF membrane. After blocking with milk, the membrane was incubated with primary antibody at 4 °C overnight. Subsequently, the membrane was incubated with horseradish peroxidase-coupled secondary antibody for 2 h. Finally, the protein bands were used to detect the immunoreactive signal using an enhanced chemiluminescence kit.

ACHN = assay: MTT antiproliferative assay, ACHN; format: cell-based, human; conditions: Homo sapiens, ACHN, 48 h, mean ± SD
Cal27 cells [2] = assay: MTT cell survival with autophagy inhibitor CQ; format: cell-based, human; conditions: Cal27, 20 μM CQ and different concentrations of 7be
Protocol: Meanwhile, to further confirm that compound 7be could induce autophagic death in Cal27 cells, we used a classical autophagy inhibitor, chloroquine (CQ), to evaluate the role of autophagy in compound 7be-mix-induced cell death.
Human oral cancer Cal27 cells were seeded in 96-well plates and incubated overnight in 180 μL of medium containing 10% Fetal Bovine Serum (Gibco, San Francisco, CA, USA). On the following day, compounds at final concentrations of 2.5, 5, 10 and 20 μM were added to each well and incubated for 48 h. Then, 10 μL of 5 mg/mL MTT solution was added to each well and incubated at 37 °C for 4 h. After 4 h of incubation at 37 °C, the MTT-containing medium was removed and DMSO was added to each well and the absorbance at 570 nm and 630 nm was measured using a microplate reader (CYTATION 3, Burton, Westwood, NJ, USA). Survival/% = (mean OD of experimental group/mean OD of control group) × 100%. Each test was repeated at least three times.

Topo I = target: T1, Topo I (Homo sapiens, UniProt P11387); assay: Cellular thermal shift assay (CETSA); format: cell-based; set-up: endogenous in cells; host or cells: Cal27; conditions: 8 μM
T1 sequence (P11387 1-765): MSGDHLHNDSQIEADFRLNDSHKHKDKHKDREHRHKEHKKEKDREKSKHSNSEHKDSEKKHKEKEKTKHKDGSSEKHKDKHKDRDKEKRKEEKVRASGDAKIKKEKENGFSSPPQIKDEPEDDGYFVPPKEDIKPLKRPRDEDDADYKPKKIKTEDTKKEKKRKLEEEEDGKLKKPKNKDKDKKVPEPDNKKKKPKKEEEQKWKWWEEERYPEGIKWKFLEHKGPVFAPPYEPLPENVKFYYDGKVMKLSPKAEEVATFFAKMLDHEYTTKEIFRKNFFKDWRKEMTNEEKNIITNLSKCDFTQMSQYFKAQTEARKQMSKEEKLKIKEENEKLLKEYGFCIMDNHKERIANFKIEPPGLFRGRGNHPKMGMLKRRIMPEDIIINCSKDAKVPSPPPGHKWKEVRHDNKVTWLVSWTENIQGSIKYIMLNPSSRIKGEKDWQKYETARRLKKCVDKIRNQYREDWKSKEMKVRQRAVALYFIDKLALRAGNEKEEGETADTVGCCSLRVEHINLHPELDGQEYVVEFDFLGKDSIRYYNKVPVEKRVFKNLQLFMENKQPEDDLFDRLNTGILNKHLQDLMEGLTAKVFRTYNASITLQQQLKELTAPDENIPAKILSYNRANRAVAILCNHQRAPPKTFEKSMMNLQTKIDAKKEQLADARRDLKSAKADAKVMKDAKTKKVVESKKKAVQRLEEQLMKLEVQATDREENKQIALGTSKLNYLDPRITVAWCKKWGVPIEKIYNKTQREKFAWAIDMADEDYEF
Protocol: For intact cell assays, Cal27 cells were treated with compound 7be (8 μM) for 3 h before collection and washing several times with PBS buffer to avoid excess compound residues. Each cell suspension was dispensed into different 0.2 mL PCR tubes and then denatured for 3 min at different temperatures on a PCR instrument, and the cells were freeze-thawed twice with liquid nitrogen. After centrifugation, the supernatant was collected, mixed with an appropriate amount of up-sampling buffer and boiled at 95 °C for 6 min. The supernatant was detected by Western blot. For cell lysate experiments, Cal27 cells were collected with RIPA lysis buffer. Then compound 7be (8 μM) was added to the supernatant and incubated at 25 °C for 2 h. After denaturation at different temperatures for 3 min, centrifugation was performed before collecting the supernatant, mixing with an appropriate amount of lysing buffer and boiling at 95 °C for 6 min, and then Western blot was performed to detect the supernatant.

MGC-803 = assay: MTT antiproliferative assay, MGC-803; format: cell-based, human; conditions: Homo sapiens, MGC-803, 48 h, mean ± SD
Cal27 cells [3] = assay: Cell cycle analysis by flow cytometry; format: cell-based, human; conditions: Cal27, 4 μM, 24 h
Protocol: Cal27 cells were treated with compound 7be for 24 h. Next, Cal27 cells were collected and suspended in ice ethanol at 4 °C for at least 24 h. Subsequently, Cal27 cells were incubated in RNase A and PI staining solution at 37 °C, protected from light, for 0.5 h. Finally, cells were detected by flow cytometry.

- IC50 (A549): 3.32 ± 1.9 µM
- IC50 (ACHN): 3.25 ± 1.59 µM
- thermal stability of Topo I protein, cell lysate (Topo I; Cal27 lysate, 2 h, especially 52 to 56 °C): increased
- thermal stability of Topo I protein, intact cells (Topo I; intact Cal27 cells, 3 h): increase in thermal stability
- IC50 (MGC-803): 1.69 ± 0.24 µM
SMILES: Cc1cc(C)c2c(n1)S(=O)(=O)c1c-2nc(NCCN2CCCCC2)c2ccccc12 [7be, 7,9-Dimethyl-5-((2-(piperidin-1-yl)ethyl)amino) pyrido[3′,2′:4,5]thieno[3,2-c]isoquinoline 11,11-dioxide]
- migration of Cal27 cells (in words) (Cal27 cells [1]): effectively inhibit migration
- expression and phosphorylation levels of NF-κB (PI3K/AKT/NF-κB pathway): decrease
- expression levels of PI3K (PI3K/AKT/NF-κB pathway): slightly increased
- phosphorylation levels of PI3K and AKT (PI3K/AKT/NF-κB pathway): significantly repressed
- cell survival rate of combined treatment with 20 μM CQ (Cal27 cells [2]): higher than that of the group treated with compound 7be alone
- cells in S (Cal27 cells [3]): 54.06%
